These results are taken from PMC11889516 (Microbial Biotechnology, 2025).

For one series, the target named is T1, CYP116B234 (Rhodococcus globerulus, UniProt A0ABU4C0V8).
T1 construct: gene R3Q16_26300; full-length, N-terminal polyhistidine tag (GenBank MCE4265947.1)
T1 sequence (A0ABU4C0V8 1-767): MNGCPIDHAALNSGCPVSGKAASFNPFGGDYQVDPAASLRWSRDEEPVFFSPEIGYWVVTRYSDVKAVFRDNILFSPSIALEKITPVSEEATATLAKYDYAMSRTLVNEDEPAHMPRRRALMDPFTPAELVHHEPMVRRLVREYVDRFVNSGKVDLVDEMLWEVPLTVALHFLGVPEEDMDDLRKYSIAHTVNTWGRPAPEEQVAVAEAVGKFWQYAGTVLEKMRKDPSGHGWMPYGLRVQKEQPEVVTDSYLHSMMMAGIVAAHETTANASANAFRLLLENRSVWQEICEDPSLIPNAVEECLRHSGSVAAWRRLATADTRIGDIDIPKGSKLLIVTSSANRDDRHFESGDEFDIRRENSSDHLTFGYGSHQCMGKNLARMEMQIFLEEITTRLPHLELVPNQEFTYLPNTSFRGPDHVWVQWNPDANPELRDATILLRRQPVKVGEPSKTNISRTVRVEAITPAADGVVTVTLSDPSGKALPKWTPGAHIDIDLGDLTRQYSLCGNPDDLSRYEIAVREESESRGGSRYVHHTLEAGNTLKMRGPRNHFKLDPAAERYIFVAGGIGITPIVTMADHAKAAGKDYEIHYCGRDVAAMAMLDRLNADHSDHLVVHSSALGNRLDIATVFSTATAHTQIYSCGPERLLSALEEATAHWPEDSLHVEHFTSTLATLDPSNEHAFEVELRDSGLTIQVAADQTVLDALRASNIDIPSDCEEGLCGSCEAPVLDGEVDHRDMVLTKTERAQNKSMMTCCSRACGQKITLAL
Nature of the series: UV-visible difference spectroscopy titration (heme spin-state shift); also NADPH consumption and turnover with purified enzyme. Format: binding.

Substrate in series [1]: NC(=O)C1=CN([C@@H]2O[C@H](COP(=O)(O)OP(=O)(O)OC[C@H]3O[C@@H](n4cnc5c(N)ncnc54)[C@H](O)[C@@H]3O)[C@@H](O)[C@H]2O)C=CC1
Nature of the series: purified protein. Conditions: FMN, [2Fe-2S], heme reductase domain; varied: cofactor.

Substrate in series [2]: NC(=O)C1=CN([C@@H]2O[C@H](COP(=O)(O)OP(=O)(O)OC[C@H]3O[C@@H](n4cnc5c(N)ncnc54)[C@H](OP(=O)(O)O)[C@@H]3O)[C@@H](O)[C@H]2O)C=CC1
Nature of the series: purified protein. Format: biochemical, Rhodococcus globerulus. Particulars: FMN, [2Fe-2S], heme reductase domain; varied: cofactor.

For `O=C(O)Cc1ccccc1O` [2-HPA, 2‐hydroxyphenylacetic acid], on CYP116B234, the Kd stood at 0.7 ± 0.1 µM.

As for `O=C(O)CCc1ccccc1O` [HPPA, 3‐(2‐hydroxyphenyl)propionic acid], the Kd on CYP116B234 is 1.9 ± 0.1 µM.

B1: CYP116B234 (Rhodococcus globerulus) (protein)
chain: MNGCPIDHAALNSGCPVSGKAASFNPFGGDYQVDPAASLRWSRDEEPVFFSPEIGYWVVTRYSDVKAVFRDNILFSPSIALEKITPVSEEATATLAKYDYAMSRTLVNEDEPAHMPRRRALMDPFTPAELVHHEPMVRRLVREYVDRFVNSGKVDLVDEMLWEVPLTVALHFLGVPEEDMDDLRKYSIAHTVNTWGRPAPEEQVAVAEAVGKFWQYAGTVLEKMRKDPSGHGWMPYGLRVQKEQPEVVTDSYLHSMMMAGIVAAHETTANASANAFRLLLENRSVWQEICEDPSLIPNAVEECLRHSGSVAAWRRLATADTRIGDIDIPKGSKLLIVTSSANRDDRHFESGDEFDIRRENSSDHLTFGYGSHQCMGKNLARMEMQIFLEEITTRLPHLELVPNQEFTYLPNTSFRGPDHVWVQWNPDANPELRDATILLRRQPVKVGEPSKTNISRTVRVEAITPAADGVVTVTLSDPSGKALPKWTPGAHIDIDLGDLTRQYSLCGNPDDLSRYEIAVREESESRGGSRYVHHTLEAGNTLKMRGPRNHFKLDPAAERYIFVAGGIGITPIVTMADHAKAAGKDYEIHYCGRDVAAMAMLDRLNADHSDHLVVHSSALGNRLDIATVFSTATAHTQIYSCGPERLLSALEEATAHWPEDSLHVEHFTSTLATLDPSNEHAFEVELRDSGLTIQVAADQTVLDALRASNIDIPSDCEEGLCGSCEAPVLDGEVDHRDMVLTKTERAQNKSMMTCCSRACGQKITLAL
notes: full-length, N-terminal polyhistidine tag (GenBank MCE4265947.1)
On to B1, for which the Michaelis constant (Km) in “purified protein [1]” was found to be 240 ± 20 µM; in the series “purified protein [2]”, 0.5 ± 0.4 µM.

Usually Kd stands for a measure of binding affinity in units of concentration. As a reminder, the Km is the concentration of substrate that gives half-maximal velocity.
